# Test results: patent US11464802B2, “3-substituted piperidine compounds for Cbl-b inhibition, and use thereof” (Nurix Therapeutics, Inc., priority 2019, dated 2022)
# Key:
# [1] = tested on: primary human total T-cells; assay: Primary human total T-cell activation: IL-2 secretion, Biological Example 13; format: cell-based; conditions: 48 hours, fold change over baseline; for fold induction at 0.3 µM: inhibitor 0.3 μM; for fold induction at 0.3 µM / fold induction at 3 µM: Table 13-1; for fold induction at 1 µM: inhibitor 1 μM; for fold induction at 3 µM: inhibitor 3 μM
# Cbl-b [2] = target: T1, Cbl-b (Homo sapiens (Human), UniProt Q13191); assay: Cbl-b displacement assay (Cbl-b inhibition assay), Biological Example 12; format: binding; conditions: Table 12-1
# Description: (§1) Candidate compounds were evaluated for their ability to bind and inhibit Cbl-b, an E3 ubiquitin-protein ligase, as evidenced by their ability to displace a fluorophore-labeled probe bound to Cbl-b.
# (§2) The ability of candidate compounds to displace a known inhibitor and thereby inhibit Cbl-b activity was measured by monitoring the interaction of Cbl-b with a fluorophore-labeled probe in the presence of the candidate compound. A truncated variant of Cbl-b (UniProt number Q13191) containing residues 36-427 and an Avitag at its N-terminus was co-expressed with BirA biotin ligase and purified using a standard protocol (see Dou et al., Nature Structural and Molecular Biology 8: 982-987, 2013; Avidity LLC).
# (§3) Fluorescently-labeled inhibitor probe was synthesized and tagged with BODIPY FL. Cbl-b displacement assays were performed in a 384-well plate at room temperature in a 10 μl reaction volume by pre-incubating 0.5 nM Cbl-b or 0.125 nM Cbl-b (final concentration, indicated as “High” and “Low”, respectively) in an assay buffer containing 20 mM HEPES pH 7.5, 150 mM NaCl, 0.01% Triton X-100, 0.01% BSA and 0.5 mM TCEP in the presence of a candidate compound in 1% DMSO (final concentration) for 1 hour. After incubation in the presence of the candidate compound, the plate was incubated for an additional 1 hour in the presence of an approximate EC40 binding saturation consisting of 150 nM fluorescently-labeled inhibitor probe and 2 nM Streptavidin-Terbium (Cisbio) (final concentrations). Following the 1 hour incubation, the plates were read for TR-FRET signal at 520/620 nM using an Envision plate reader (Perkin Elmer).
# (§4) The resulting data for the Cbl-b activity assays were analyzed using standard methods to determine the IC50 values for the tested compounds.
# [3] = tested on: primary human total T-cells; assay: Primary human total T-cell activation: CD25 surface staining, Biological Example 2; format: cell-based; conditions: 48 hours, fold change over baseline; for fold induction at 0.3 µM: inhibitor 0.3 μM; for fold induction at 1 µM: inhibitor 1 μM; for fold induction at 3 µM: inhibitor 3 μM
# [4] = tested on: primary human total T-cells; assay: Primary human total T-cell activation: IL-2 secretion, Biological Example 2; format: cell-based; conditions: 48 hours, fold change over baseline; for fold induction at 0.3 µM: inhibitor 0.3 μM; for fold induction at 1 µM: inhibitor 1 μM; for fold induction at 3 µM: inhibitor 3 μM
# [5] = tested on: primary human total T-cells; assay: Primary human total T-cell activation: CD25 surface staining, Biological Example 9; format: cell-based; conditions: 48 hours, fold change over baseline; for fold induction at 0.3 µM: inhibitor 0.3 μM; for fold induction at 0.3 µM / fold induction at 3 µM: Table 9-1; for fold induction at 1 µM: inhibitor 1 μM; for fold induction at 3 µM: inhibitor 3 μM
# Cbl-b [6] = target: T1, Cbl-b; assay: Cbl-b displacement assay (Cbl-b inhibition assay), Biological Example 8; format: binding; conditions: Table 8-1
# Description: as §1, §2, §3, §4
# Cbl-b [7] = target: T1, Cbl-b; assay: Cbl-b displacement assay (Cbl-b inhibition assay), TR-FRET probe displacement, Biological Example 1; format: binding
# Outline: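 N-terminally Avitagged, biotinylated truncated Cbl-b (0.5 nM "High" or 0.125 nM "Low", final) pre-incubated 1 h at room temperature with compound (1% DMSO) in HEPES pH 7.5 buffer. Then 150 nM BODIPY FL probe (~EC40) plus 2 nM streptavidin-terbium for 1 h; TR-FRET read at 520/620 nm.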
# [8] = tested on: primary human total T-cells; assay: Primary human total T-cell activation: IL-2 secretion, Biological Example 9; format: cell-based; conditions: 48 hours, fold change over baseline; for fold induction at 0.3 µM: inhibitor 0.3 μM; for fold induction at 0.3 µM / fold induction at 3 µM: Table 9-1; for fold induction at 1 µM: inhibitor 1 μM; for fold induction at 3 µM: inhibitor 3 μM
# [9] = tested on: primary human total T-cells; assay: Primary human total T-cell activation: CD25 surface staining, Biological Example 13; format: cell-based; conditions: 48 hours, fold change over baseline; for fold induction at 0.3 µM: inhibitor 0.3 μM; for fold induction at 0.3 µM / fold induction at 3 µM: Table 13-1; for fold induction at 1 µM: inhibitor 1 μM; for fold induction at 3 µM: inhibitor 3 μM
# [10] = anti-CD3/anti-CD28 co-stimulation
# [11] = anti-CD3/anti-CD28 co-stimulation, Table 13-1, read-out: IL-2 secretion CD3/CD28 1 μM
# [12] = anti-CD3 alone, Table 13-1, read-out: IL-2 secretion CD3 1 μM
# [13] = 0.125 nM Cbl-b final concentration (Low), read-out: Cbl-b IC50 (Low)
# [14] = anti-CD3/anti-CD28 co-stimulation, read-out: CD25 staining CD3/CD28 1 μM
# [15] = anti-CD3 alone, read-out: CD25 staining CD3 1 μM
# [16] = anti-CD3/anti-CD28 co-stimulation, read-out: IL-2 secretion CD3/CD28 1 μM
# [17] = anti-CD3 alone, read-out: IL-2 secretion CD3 1 μM
# [18] = anti-CD3/anti-CD28 co-stimulation, Table 9-1, read-out: CD25 staining CD3/CD28 1 μM
# [19] = anti-CD3 alone, Table 9-1, read-out: CD25 staining CD3 1 μM
# [20] = 0.125 nM Cbl-b final concentration (Low), read-out: Cbl-b activity IC50 (Low)
# [21] = Cbl-b concentration (High or Low) not given, read-out: IC50 values in the Cbl-b inhibition assay of Biological Example 1
# [22] = anti-CD3/anti-CD28 co-stimulation, Table 9-1, read-out: IL-2 secretion CD3/CD28 1 μM
# [23] = anti-CD3 alone, Table 9-1, read-out: IL-2 secretion CD3 1 μM
# [24] = anti-CD3/anti-CD28 co-stimulation, Table 13-1, read-out: CD25 staining CD3/CD28 1 μM
# [25] = anti-CD3 alone, Table 13-1, read-out: CD25 staining CD3 1 μM
# [26] = 0.5 nM Cbl-b final concentration (High), read-out: Cbl-b IC50 (High)
# [27] = 0.5 nM Cbl-b final concentration (High), read-out: Cbl-b activity IC50 (High)
# T1 sequence (Q13191 36-427): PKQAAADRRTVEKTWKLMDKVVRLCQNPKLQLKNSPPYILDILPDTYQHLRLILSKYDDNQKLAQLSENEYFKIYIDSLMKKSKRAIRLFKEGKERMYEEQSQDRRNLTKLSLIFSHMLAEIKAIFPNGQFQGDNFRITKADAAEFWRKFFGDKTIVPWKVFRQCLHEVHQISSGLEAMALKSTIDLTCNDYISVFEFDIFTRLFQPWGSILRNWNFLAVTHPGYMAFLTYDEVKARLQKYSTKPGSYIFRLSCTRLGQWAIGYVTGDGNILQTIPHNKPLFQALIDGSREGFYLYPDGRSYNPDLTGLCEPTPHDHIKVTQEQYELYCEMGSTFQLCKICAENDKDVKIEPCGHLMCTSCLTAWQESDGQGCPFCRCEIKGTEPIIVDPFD
IC50 (Cbl-b [7]; [21]),SMILES,"fold induction at 0.3 µM [1, 10]","fold induction at 1 µM [1, 11]","fold induction at 1 µM [1, 12]",fold induction at 3 µM ([1]; anti-CD3 alone),"fold induction at 0.3 µM [3, 10]","fold induction at 1 µM [3, 14]","fold induction at 1 µM [3, 15]",fold induction at 3 µM ([3]; anti-CD3 alone),"fold induction at 0.3 µM [4, 10]","fold induction at 1 µM [4, 16]","fold induction at 1 µM [4, 17]",fold induction at 3 µM ([4]; anti-CD3 alone),"fold induction at 0.3 µM [5, 10]","fold induction at 1 µM [5, 18]","fold induction at 1 µM [5, 19]",fold induction at 3 µM ([5]; anti-CD3 alone),"fold induction at 0.3 µM [8, 10]","fold induction at 1 µM [8, 22]","fold induction at 1 µM [8, 23]",also measured
< 1 nM,"CCOc1cc(C2(Cc3nncn3C)COC2)cc(N2Cc3c(cc(CN4CCC[C@H](C)C4)cc3C(F)(F)F)C2=O)n1 [Compound 39, 2-(6-ethoxy-4-{3-[(4-methyl-1,2,4-triazol-3-yl)methyl]oxetan-3-yl}pyridin-2-yl)-6-{[(3S)-3-methylpiperidin-1-yl]methyl}-4-(trifluoromethyl)-3H-isoindol-1-one]",> 15,> 15,> 0.66,> 0.66,> 1.39,> 1.39,> 1.14,> 1.14,> 15,> 15,> 0.66,> 0.66,> 1.39,> 1.39,> 1.14,> 1.14,> 15,> 15,> 0.66,"IC50 (Cbl-b [2]; [13]): < 1 nM; IC50 (Cbl-b [6]; [13]): < 1 nM; IC50 (Cbl-b [7]; [20]): < 1 nM; fold induction at 3 µM ([8]; anti-CD3 alone): > 0.66; fold induction at 0.3 µM [9, 10]: > 1.39; fold induction at 1 µM [9, 24]: > 1.39; fold induction at 1 µM [9, 25]: > 1.14; fold induction at 3 µM ([9]; anti-CD3 alone): > 1.14"
< 1 nM,"C[C@H]1CCCN(Cc2cc3c(c(C(F)(F)F)c2)CN(c2cccc(C4(Cc5nncn5C)COC4)c2)C3=O)C1 [Compound 1, (S)-2-(3-(3-((4-methyl-4H-1,2,4-triazol-3-yl)methyl)oxetan-3-yl)phenyl)-6-((3-methylpiperidin-1-yl)methyl)-4-(trifluoromethyl)isoindolin-1-one]",> 15,> 15,> 0.66,> 0.66,< 1.24,< 1.24,< 1.04,< 1.04,> 15,> 15,> 0.66,> 0.66,> 1.39,> 1.39,> 1.14,> 1.14,> 15,> 15,> 0.66,"IC50 (Cbl-b [2]; [26]): < 1 nM; IC50 (Cbl-b [6]; [26]): < 1 nM; IC50 (Cbl-b [7]; [27]): < 1 nM; fold induction at 3 µM ([8]; anti-CD3 alone): > 0.66; fold induction at 0.3 µM [9, 10]: > 1.39; fold induction at 1 µM [9, 24]: > 1.39; fold induction at 1 µM [9, 25]: > 1.14; fold induction at 3 µM ([9]; anti-CD3 alone): > 1.14"
< 1 nM,"CCNc1cc(C2(Cc3nncn3C)COC2)cc(N2Cc3c(cc(CN4CCC[C@H](C)C4)cc3C(F)(F)F)C2=O)n1 [Compound 44, 2-[6-(ethylamino)-4-{3-[(4-methyl-1,2,4-triazol-3-yl)methyl]oxetan-3-yl}pyridin-2-yl]-6-{[(3S)-3-methylpiperidin-1-yl]methyl}-4-(trifluoromethyl)-3H-isoindol-1-one]",< 10,< 10,< 0.33,0.34 to 0.66,> 1.39,> 1.39,> 1.14,> 1.14,> 15,> 15,> 0.66,> 0.66,1.25 to 1.39,1.25 to 1.39,1.05 to 1.14,1.05 to 1.14,< 10,< 10,< 0.33,"IC50 (Cbl-b [2]; [13]): < 1 nM; IC50 (Cbl-b [6]; [13]): < 1 nM; IC50 (Cbl-b [7]; [20]): < 1 nM; fold induction at 3 µM ([8]; anti-CD3 alone): 0.34 to 0.66; fold induction at 0.3 µM [9, 10]: 1.25 to 1.39; fold induction at 1 µM [9, 24]: 1.25 to 1.39; fold induction at 1 µM [9, 25]: 1.05 to 1.14; fold induction at 3 µM ([9]; anti-CD3 alone): 1.05 to 1.14"
< 1 nM,"C[C@@H]1C[C@H](C)CN(Cc2cc3c(c(C(F)(F)F)c2)CN(c2cccc(C4(Cc5nncn5C)COC4)c2)C3=O)C1 [Compound 2, 6-{[(3R,5S)-3,5-dimethylpiperidin-1-yl]methyl}-2-(3-{3-[(4-methyl-1,2,4-triazol-3-yl)methyl]oxetan-3-yl}phenyl)-4-(trifluoromethyl)-3H-isoindol-1-one]",11 to 15,11 to 15,0.34 to 0.66,> 0.66,< 1.24,< 1.24,1.05 to 1.14,1.05 to 1.14,> 15,> 15,0.34 to 0.66,> 0.66,< 1.24,< 1.24,1.05 to 1.14,1.05 to 1.14,10 to 15,10 to 15,0.34 to 0.66,"IC50 (Cbl-b [2]; [26]): < 1 nM; IC50 (Cbl-b [6]; [26]): < 1 nM; IC50 (Cbl-b [7]; [27]): < 1 nM; fold induction at 3 µM ([8]; anti-CD3 alone): > 0.66; fold induction at 0.3 µM [9, 10]: < 1.24; fold induction at 1 µM [9, 24]: < 1.24; fold induction at 1 µM [9, 25]: 1.05 to 1.14; fold induction at 3 µM ([9]; anti-CD3 alone): 1.05 to 1.14"
